target: Isocitrate dehydrogenase [NADP] cytoplasmic (Homo sapiens, UniProt O75874, R132H); test: Inhibition of IDH1 R132H mutant (unknown origin) assessed as reduction in NADPH consumption using alpha-KG as substrate incubated for 5 mins by diaphorase/resazurin-coupled system
Sequence (O75874 2-414 R132H limits assumed): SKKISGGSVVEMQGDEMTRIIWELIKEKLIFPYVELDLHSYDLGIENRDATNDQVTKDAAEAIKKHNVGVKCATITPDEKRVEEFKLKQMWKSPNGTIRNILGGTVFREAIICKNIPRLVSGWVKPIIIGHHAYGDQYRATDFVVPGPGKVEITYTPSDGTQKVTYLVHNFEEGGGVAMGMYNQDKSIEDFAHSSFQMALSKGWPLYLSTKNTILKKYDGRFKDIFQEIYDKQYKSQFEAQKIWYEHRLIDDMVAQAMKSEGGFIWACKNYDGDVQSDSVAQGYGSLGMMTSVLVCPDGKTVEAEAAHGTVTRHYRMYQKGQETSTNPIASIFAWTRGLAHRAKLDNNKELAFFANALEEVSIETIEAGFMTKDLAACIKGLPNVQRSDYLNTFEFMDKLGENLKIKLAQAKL

Compound | IC50 [nM]
CCc1cccc(CC)c1-n1c(C)c(C(=O)NC)cc(-c2nc(-c3ccc(Cl)cc3)cs2)c1=O | 1500
COc1ccc(OC)c(-n2c3c(cc(-c4ccn(-c5ccccc5)n4)c2=O)C(=O)CC(C)(C)C3)c1 | 3100
COc1ccc(OC)c(-n2c3c(cc(-c4nc(-c5ccc(Cl)cc5)cs4)c2=O)C(=O)CNC3)c1 | 8000
CC1(C)CC(=O)c2cc(-c3nc(-c4ccc(Cl)cc4)cs3)c(=O)n(C3CCCCC3)c2C1 | > 38000
COc1ccc(OC)c(-n2c3c(cc(-c4c[nH]c(-c5ccccc5)n4)c2=O)C(=O)CC(C)(C)C3)c1 | 2100
CCc1cccc(CC)c1-n1c(C)c(C(=O)OC)cc(-c2nc(-c3ccc(Cl)cc3)cs2)c1=O | > 38000
COc1ccncc1-n1c2c(cc(-c3nc(-c4ccc(Cl)cc4)cs3)c1=O)C(=O)CC(C)(C)C2 | > 38000
CCOC(=O)c1cc(-c2nc(-c3ccc(Cl)cc3)cs2)c(=O)n(-c2c(CC)cccc2CC)c1-c1ccccc1 | > 38000
CCc1cccc(CC)c1-n1c(C)c(C(=O)NCc2ccccc2)cc(-c2nc(-c3ccc(Cl)cc3)cs2)c1=O | > 38000
CC1(C)CC(=O)c2cc(-c3nc(-c4ccc(Cl)cc4)cs3)c(=O)n(-c3sccc3C#N)c2C1 | 260
CCc1cccc(CC)c1-n1c(C)c(C(=O)NC(C)C)cc(-c2nc(-c3ccc(Cl)cc3)cs2)c1=O | 2800
COc1ccc(OC)c(-n2c3c(cc(-c4cccc(-c5ccc(Cl)cc5)c4)c2=O)C(=O)CC(C)(C)C3)c1 | > 38000
COc1ccc(OC)c(-n2c3c(cc(-c4ccc(-c5ccccc5)cc4)c2=O)C(=O)CC(C)(C)C3)c1 | > 38000
COc1ccc(OC)c(-n2c3c(cc(-c4nc(-c5ccccc5)cs4)c2=O)C(=O)CC(C)(C)C3)c1 | 1200
CCc1cccc(CC)c1-n1c(C)c(C(=O)NC2CCCCC2)cc(-c2nc(-c3ccc(Cl)cc3)cs2)c1=O | > 38000
COc1cccc(C)c1-n1c2c(cc(-c3nc(-c4ccc(Cl)cc4)cs3)c1=O)C(=O)CC(C)(C)C2 | 2100
COc1ccc(OC)c(-n2c3c(cc(-c4ncc(-c5ccc(Cl)cc5)s4)c2=O)C(=O)CC(C)(C)C3)c1 | > 38000
CC1(C)CC(=O)c2cc(-c3nc(-c4ccc(Cl)cc4)cs3)c(=O)n(-c3ccccc3C(F)(F)F)c2C1 | 270
COc1ccc(OC)c(-n2cccc(-c3nc(-c4ccc(Cl)cc4)cs3)c2=O)c1 | > 38000
COc1ccc(OC)c(-n2c3c(cc(-c4nc(-c5ccc(Cl)cc5)cs4)c2=O)C(=O)NCC3)c1 | 2300

The remaining lines, values ahead:

IC50 [nM] | Compound
130 | CCCC1CN(C(=O)c2cc(-c3nc(-c4ccc(Cl)cc4)cs3)c(=O)n(-c3c(CC)cccc3CC)c2C=C(C)C)CCN1 (stereo unspecified)
94 | CCc1cccc(CC)c1-n1c(C=C(C)C)c(C(=O)N2CCNC(C(N)=O)C2)cc(-c2nc(-c3ccc(Cl)cc3)cs2)c1=O (stereo unspecified)
330 | CC(C)=Cc1c(C(=O)N2CCNCC2)cc(-c2nc(-c3ccc(Cl)cc3)cs2)c(=O)n1-c1ccccc1
160 | CCc1cccc(CC)c1-n1c(C=C(C)C)c(C(=O)N2CCNC(C#N)C2)cc(-c2nc(-c3ccc(Cl)cc3)cs2)c1=O (stereo unspecified)
56 | CCc1ccccc1-n1c(C=C(C)C)c(C(=O)N2CCNCC2)cc(-c2nc(-c3ccc(Cl)cc3)cs2)c1=O
7200 | CCc1cccc(CC)c1-n1c(C)c(C(=O)O)cc(-c2nc(-c3ccc(Cl)cc3)cs2)c1=O
240 | CCc1cccc(CC)c1-n1c(C=C(C)C)c(C(=O)N2CC3(CNC3)C2)cc(-c2nc(-c3ccc(Cl)cc3)cs2)c1=O
44 | CCc1ccc(C)cc1-n1c(C=C(C)C)c(C(=O)N2CCNCC2)cc(-c2nc(-c3ccc(Cl)cc3)cs2)c1=O
100 | CCc1cccc(CC)c1-n1c(C=C(C)C)c(C(=O)N2CCNC(CC)C2)cc(-c2nc(-c3ccc(Cl)cc3)cs2)c1=O (stereo unspecified)
44 | CCc1cccc(Cl)c1-n1c(C=C(C)C)c(C(=O)N2CCNCC2)cc(-c2nc(-c3ccc(Cl)cc3)cs2)c1=O

test system: Isocitrate dehydrogenase [NADP] cytoplasmic (Homo sapiens), O75874 [R132C]; test: Inhibition of IDH1 R132C mutant (unknown origin) assessed as reduction in NADPH consumption using alpha-KG as substrate at 38 uM incubated for 5 mins by diaphorase/resazurin-coupled system relative to control
Sequence (O75874 whole entry R132C): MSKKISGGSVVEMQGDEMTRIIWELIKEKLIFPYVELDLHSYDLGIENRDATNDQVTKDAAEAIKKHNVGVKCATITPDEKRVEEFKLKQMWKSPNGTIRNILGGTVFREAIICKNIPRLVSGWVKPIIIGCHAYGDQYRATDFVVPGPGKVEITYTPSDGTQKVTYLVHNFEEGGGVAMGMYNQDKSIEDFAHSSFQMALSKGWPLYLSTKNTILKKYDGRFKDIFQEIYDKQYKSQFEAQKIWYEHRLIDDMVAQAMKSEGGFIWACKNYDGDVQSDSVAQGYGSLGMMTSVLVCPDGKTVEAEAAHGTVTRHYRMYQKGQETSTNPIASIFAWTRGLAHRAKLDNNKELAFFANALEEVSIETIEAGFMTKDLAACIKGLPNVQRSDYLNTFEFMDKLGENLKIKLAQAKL

inhibition [%] | Compound
64 | CCc1cccc(CC)c1-n1c(C)c(C(=O)NC)cc(-c2nc(-c3ccc(Cl)cc3)cs2)c1=O
46 | COc1ccc(OC)c(-n2c3c(cc(-c4ccn(-c5ccccc5)n4)c2=O)C(=O)CC(C)(C)C3)c1
32 | COc1ccc(OC)c(-n2c3c(cc(-c4nc(-c5ccc(Cl)cc5)cs4)c2=O)C(=O)CNC3)c1
39 | COc1ccc(OC)c(-n2c3c(cc(-c4c[nH]c(-c5ccccc5)n4)c2=O)C(=O)CC(C)(C)C3)c1
41 | CCc1cccc(CC)c1-n1c(C)c(C(=O)NCc2ccccc2)cc(-c2nc(-c3ccc(Cl)cc3)cs2)c1=O
90 | CC1(C)CC(=O)c2cc(-c3nc(-c4ccc(Cl)cc4)cs3)c(=O)n(-c3sccc3C#N)c2C1
54 | CCc1cccc(CC)c1-n1c(C)c(C(=O)NC(C)C)cc(-c2nc(-c3ccc(Cl)cc3)cs2)c1=O
72 | CCc1cccc(CC)c1-n1c(C)c(C(=O)O)cc(-c2nc(-c3ccc(Cl)cc3)cs2)c1=O
59 | COc1ccc(OC)c(-n2c3c(cc(-c4nc(-c5ccccc5)cs4)c2=O)C(=O)CC(C)(C)C3)c1
31 | CCc1cccc(CC)c1-n1c(C)c(C(=O)NC2CCCCC2)cc(-c2nc(-c3ccc(Cl)cc3)cs2)c1=O
72 | COc1cccc(C)c1-n1c2c(cc(-c3nc(-c4ccc(Cl)cc4)cs3)c1=O)C(=O)CC(C)(C)C2
87 | CC1(C)CC(=O)c2cc(-c3nc(-c4ccc(Cl)cc4)cs3)c(=O)n(-c3ccccc3C(F)(F)F)c2C1
65 | COc1ccc(OC)c(-n2c3c(cc(-c4nc(-c5ccc(Cl)cc5)cs4)c2=O)C(=O)NCC3)c1

test system: Isocitrate dehydrogenase [NADP] cytoplasmic (Homo sapiens), O75874 [R132H]; test: Inhibition of IDH1 R132H mutant (unknown origin) assessed as reduction in NADPH consumption using alpha-KG as substrate at 38 uM incubated for 5 mins by diaphorase/resazurin-coupled system relative to control
Sequence (O75874 whole entry R132H): as the sequence (O75874 whole entry R132C) above, with C132H counted along it

inhibition [%] | Compound
87 | CCc1cccc(CC)c1-n1c(C)c(C(=O)NC)cc(-c2nc(-c3ccc(Cl)cc3)cs2)c1=O
84 | COc1ccc(OC)c(-n2c3c(cc(-c4ccn(-c5ccccc5)n4)c2=O)C(=O)CC(C)(C)C3)c1
75 | COc1ccc(OC)c(-n2c3c(cc(-c4nc(-c5ccc(Cl)cc5)cs4)c2=O)C(=O)CNC3)c1
75 | COc1ccc(OC)c(-n2c3c(cc(-c4c[nH]c(-c5ccccc5)n4)c2=O)C(=O)CC(C)(C)C3)c1
100 | CC1(C)CC(=O)c2cc(-c3nc(-c4ccc(Cl)cc4)cs3)c(=O)n(-c3sccc3C#N)c2C1
47 | CCc1cccc(CC)c1-n1c(C)c(C(=O)NC(C)C)cc(-c2nc(-c3ccc(Cl)cc3)cs2)c1=O
102 | CCc1cccc(CC)c1-n1c(C)c(C(=O)O)cc(-c2nc(-c3ccc(Cl)cc3)cs2)c1=O
77 | COc1ccc(OC)c(-n2c3c(cc(-c4nc(-c5ccccc5)cs4)c2=O)C(=O)CC(C)(C)C3)c1
81 | COc1cccc(C)c1-n1c2c(cc(-c3nc(-c4ccc(Cl)cc4)cs3)c1=O)C(=O)CC(C)(C)C2
96 | CC1(C)CC(=O)c2cc(-c3nc(-c4ccc(Cl)cc4)cs3)c(=O)n(-c3ccccc3C(F)(F)F)c2C1
84 | COc1ccc(OC)c(-n2c3c(cc(-c4nc(-c5ccc(Cl)cc5)cs4)c2=O)C(=O)NCC3)c1

target: Isocitrate dehydrogenase [NADP] cytoplasmic (Homo sapiens, UniProt O75874, R132C); test: Inhibition of IDH1 R132C mutant (unknown origin) assessed as reduction in NADPH consumption using alpha-KG as substrate incubated for 5 mins by diaphorase/resazurin-coupled system
Sequence (O75874 2-414 R132C limits assumed): as the sequence (O75874 2-414 R132H limits assumed) above, with H131C counted along it

Compound | IC50 [nM]
CC1(C)CC(=O)c2cc(-c3nc(-c4ccc(Cl)cc4)cs3)c(=O)n(C3CCCCC3)c2C1 | > 38000
CCc1cccc(CC)c1-n1c(C)c(C(=O)OC)cc(-c2nc(-c3ccc(Cl)cc3)cs2)c1=O | > 38000
COc1ccncc1-n1c2c(cc(-c3nc(-c4ccc(Cl)cc4)cs3)c1=O)C(=O)CC(C)(C)C2 | > 38000
CCOC(=O)c1cc(-c2nc(-c3ccc(Cl)cc3)cs2)c(=O)n(-c2c(CC)cccc2CC)c1-c1ccccc1 | > 38000
COc1ccc(OC)c(-n2c3c(cc(-c4cccc(-c5ccc(Cl)cc5)c4)c2=O)C(=O)CC(C)(C)C3)c1 | > 38000
COc1ccc(OC)c(-n2c3c(cc(-c4ccc(-c5ccccc5)cc4)c2=O)C(=O)CC(C)(C)C3)c1 | > 38000
COc1ccc(OC)c(-n2c3c(cc(-c4ncc(-c5ccc(Cl)cc5)s4)c2=O)C(=O)CC(C)(C)C3)c1 | > 38000
COc1ccc(OC)c(-n2cccc(-c3nc(-c4ccc(Cl)cc4)cs3)c2=O)c1 | > 38000

Next, values leading:

IC50 [nM] | Compound
82 | CCCC1CN(C(=O)c2cc(-c3nc(-c4ccc(Cl)cc4)cs3)c(=O)n(-c3c(CC)cccc3CC)c2C=C(C)C)CCN1 (stereo unspecified)
42 | CCc1cccc(CC)c1-n1c(C=C(C)C)c(C(=O)N2CCNC(C(N)=O)C2)cc(-c2nc(-c3ccc(Cl)cc3)cs2)c1=O (stereo unspecified)
3200 | CC(C)=Cc1c(C(=O)N2CCNCC2)cc(-c2nc(-c3ccc(Cl)cc3)cs2)c(=O)n1-c1ccccc1
56 | CCc1cccc(CC)c1-n1c(C=C(C)C)c(C(=O)N2CCNC(C#N)C2)cc(-c2nc(-c3ccc(Cl)cc3)cs2)c1=O (stereo unspecified)
160 | CCc1ccccc1-n1c(C=C(C)C)c(C(=O)N2CCNCC2)cc(-c2nc(-c3ccc(Cl)cc3)cs2)c1=O
64 | CCc1cccc(CC)c1-n1c(C=C(C)C)c(C(=O)N2CC3(CNC3)C2)cc(-c2nc(-c3ccc(Cl)cc3)cs2)c1=O
110 | CCc1ccc(C)cc1-n1c(C=C(C)C)c(C(=O)N2CCNCC2)cc(-c2nc(-c3ccc(Cl)cc3)cs2)c1=O
72 | CCc1cccc(CC)c1-n1c(C=C(C)C)c(C(=O)N2CCNC(CC)C2)cc(-c2nc(-c3ccc(Cl)cc3)cs2)c1=O (stereo unspecified)
55 | CCc1cccc(Cl)c1-n1c(C=C(C)C)c(C(=O)N2CCNCC2)cc(-c2nc(-c3ccc(Cl)cc3)cs2)c1=O
